Read-outs that look alike come from different tables or passages of the source.
What was measured:
colon 38 = experiment: Anti-tumour activity in vivo against colon 38; set-up: species or system B6D2F1 mice; conditions: for median T/C % (tumour volume on D21): D2,9, i.p.
Protocol: (§1) In this Example, the compounds were suspended in Tween 80, then diluted with water. The concentration of Tween is at a maximum of 1% at the strongest doses. The control animals received the carrier only.
Colon 38 (supplied by NCI, Frederick, U.S.A.) was inserted in the form of fragments by the subcutaneous route (s.c.) into female B6D2F1 mice. The compounds were administered by the i.p. route on D2 and D9 and the anti-tumour activity was determined on D21 by measuring the rumour volume (T/C volume, %). [formula]

murine leukaemia L1210 = experiment: Cytotoxicity for L1210 cells in culture (Microculture Tetrazolium Assay); assay type: cell-based; conditions: Mus musculus, four doubling periods (48 hours)
Protocol: A cell line, murine leukaemia L1210, was used. The cells are cultivated in a complete culture medium RPMI 1640, containing 10% foetal calf serum, 2 mM glutamine, 50 units/ml penicillin, […] streptomycin and 10 mM Hepes, pH: 7.4. The cells are distributed on microplates and exposed to the cytotoxic compounds for four doubling periods, that is 48 hours. The number of viable cells is then quantified by a colorimetric assay, the Microculture Tetrazolium Assay (J. Carmichael et al., Cancer Res., 47, 936-942, (1987)). The results are expressed as IC50, the concentration of cytotoxic agent that inhibits the proliferation of treated cells by 50%.

P388 (murine leukaemia) = experiment: Anti-tumour activity in vivo against line P388; set-up: species or system murine; B6D2F1 mice
Excerpt: as §1
Line P388 (murine leukaemia) was supplied by the National Cancer Institute (Frederick, U.S.A.). The tumour cells (10^6 cells) were inoculated on day 0 into the peritoneal cavity of female B6D2F1 mice (Iffa-Credo, France). Eight to ten mice, of a weight ranging from 18 to 20 g, were used for each experimental group. The compounds were administered via the intraperitoneal route on day 1 or once a day for 4 days (D1-4), and by the intravenous route on day 1.
The anti-tumour activity is expressed as a T/C %: [formula]
Table 2 indicates the anti-tumour activity achieved at the optimum doses for each scheme and administration route.

Solubility = assay type: physicochemical; conditions: prevents i.v. testing
[1] = background statement; prevented i.v. administration; cited from earlier work
[2] = J. H. Scarffe et al.; cited from earlier work
[3] = cited from earlier work
experimental models = conditions: especially against solid tumours, G. H. Svoboda et al.; cited from earlier work
[4] = test system: HT-29 tumour cells (human colon adenocarcinoma); experiment: HT-29 xenograft in hairless mice; assay type: in vivo, human tumour in hairless mice
Excerpt: as §1
HT-29 tumour cells originating from a human colon adenocarcinoma (American Type Culture Collection, U.S.A.) are inoculated by the subcutaneous route into hairless female mice (Iffa Credo, France). The tumour is then amplified by successive passages of tumour fragments of 2-3 mm^3 implanted bilaterally by the subcutaneous route in the animals' flanks. […] The animals are weighed and their tumour is measured twice a week.
The tumour volume is calculated in accordance with the following formula: [formula]
The results are expressed as the median relative tumour volume: [formula]
The anti-tumour activity of the compound administered is evaluated by the minimum value of the median T/C calculated at time t: [formula]
The minimum value of this parameter is evaluated a minimum of 7 days after the last treatment in accordance with EORTC (European Organization for the […]) standards.
(§2) The animals are treated by the i.p. route by weekly administration for 2 weeks of the compound of Example 1. D0 corresponds to the first time the tumours are measured and the first administration of compound.

[5] = Body weight change of hairless mice bearing HT-29 xenograft; assay type: in vivo; conditions: 6.25 mg/kg, D0,7, i.p.
Excerpt: HT-29 tumour cells originating from a human colon adenocarcinoma (American Type Culture Collection, U.S.A.) are inoculated by the subcutaneous route into hairless female mice (Iffa Credo, France). The tumour is then amplified by successive passages of tumour fragments of 2-3 mm^3 implanted bilaterally by the subcutaneous route in the animals' flanks. When the tumour has reached a size of 50 mm^3 (that is between 7 and 10 days after the graft), the animals are randomised into groups of 7 to 10 mice and treated in accordance with the protocol indicated. The animals are weighed and their tumour is measured twice a week.
as §2

## O=c1[nH]cc(F)c(=O)[nH]1 [5-fluoro-uracil, reference compound]
Colon 38; 80 mg/kg
  median T/C % (tumour volume on D21): 0%

## COc1cc2c(c3c1c(=O)c1ccccc1n3C)[C@H](OC(=O)c1ccccc1)[C@@H](OC(=O)c1ccccc1)C(C)(C)O2 (relative stereo) [Example 3, (±)-trans-1,2-dibenzoyloxy-1,2-dihydro-acronycine]
Murine leukaemia L1210
  IC50: 3.4 µM

## COc1cc2c(c3c1c(=O)c1ccccc1n3C)[C@@H](O)[C@@H](OC(=O)c1ccccc1)C(C)(C)O2 (relative stereo) [Example 5, (±)-cis-2-benzoyloxy-1-hydroxy-1,2-dihydro-acronycine]
Murine leukaemia L1210
  IC50: 7.1 µM
P388 (murine leukaemia); D1, i.p., optimum dose 12.5 mg/kg
  T/C % (survival): 258%

## COc1cc2c(c3c1c(=O)c1ccccc1n3C)[C@H]1OC(=O)O[C@H]1C(C)(C)O2 (relative stereo) [Example 7, (±)-cis-1,2-carbonyldioxy-1,2-dihydro-acronycine]
Murine leukaemia L1210
  IC50: 0.2 µM
P388 (murine leukaemia); D1, i.p., optimum dose 50 mg/kg
  T/C % (survival): 269%

## COc1cc2c(c3c1c(=O)c1ccccc1n3C)C=CC(C)(C)O2 [acronycine]
Murine leukaemia L1210
  IC50: 27 µM
P388 (murine leukaemia); D1, i.p., optimum dose 200 mg/kg
  T/C % (survival): 125%
P388 (murine leukaemia); D1-4, i.p., optimum dose 100 mg/kg
  T/C % (survival): 136%
P388 (murine leukaemia); i.p. route, at far stronger doses
  activity against P388 (in words): weak activity
Colon 38; 100 mg/kg
  median T/C % (tumour volume on D21): 77%
Colon 38; 200 mg/kg
  median T/C % (tumour volume on D21): 61%
Solubility
  solubility (in words): completely insoluble
[1]
  solubility (in words): insolubility
[2]
  clinical response: little response
[3]
  oral bioavailability (in words): poor bioavailability
Experimental models
  anti-tumour spectrum (in words): broad spectrum of activity

## COc1cc2c(c3c1c(=O)c1ccccc1n3C)[C@@H](OC(C)=O)[C@@H](OC(=O)c1ccccc1)C(C)(C)O2 (relative stereo) [Example 6, (±)-cis-1-acetoxy-2-benzoyloxy-1,2-dihydro-acronycine]
Murine leukaemia L1210
  IC50: 5 µM

## COc1cc2c(c3c1c(=O)c1ccccc1n3C)[C@@H](OC(C)=O)[C@@H](OC(C)=O)C(C)(C)O2 (relative stereo) [Example 1, (±)-cis-1,2-diacetoxy-1,2-dihydro-acronycine]
Murine leukaemia L1210
  IC50: 4.9 µM
P388 (murine leukaemia); D1, i.p., optimum dose 25 mg/kg
  T/C % (survival): 289%
P388 (murine leukaemia); D1, i.v., optimum dose 25 mg/kg
  T/C % (survival): 220%
P388 (murine leukaemia); D1-4, i.p., optimum dose 12.5 mg/kg
  T/C % (survival): 172%
P388 (murine leukaemia); i.p. and i.v. routes
  activity against P388 (in words): extremely active
Colon 38; 25 mg/kg versus 5-fluoro-uracil at 80 mg/kg
  activity against colon 38 compared with 5-fluoro-uracil (in words): as active at 25 mg/kg as 5-fluoro-uracil
Colon 38; 6.25 mg/kg
  median T/C % (tumour volume on D21): 12%
Colon 38; 12.5 mg/kg
  median T/C % (tumour volume on D21): 8%
Colon 38; 25 mg/kg
  median T/C % (tumour volume on D21): 1%
Colon 38; i.p.
  activity against colon 38 (in words): very active
[4]; 6.25 mg/kg, D0,7, i.p., minimum at D32
  Minimum median T/C % (day): 46%
[4]; i.p., weekly for 2 weeks
  activity against HT-29 (in words): active against that very resistant tumour
[5]
  Δ weight (D10-D0): -1.1 g

Source: patent publication US5567707A, “Acronycine analogues” (Adir et Compagnie, priority 1994, dated 1996)
